Reference: patent US7645802B2 (Biovail Laboratories International SRL., priority 2005, dated 2010)

Key:
Rj: Wistar (Han) rats = experiment: EEG trace monitoring and behavioural observations in conscious rats; details: rat, in vivo, ip
Procedure: The effects of the two bupropion salt forms hydrochloride and hydrobromide on central nervous system activity after intraperitoneal administration were evaluated by means of EEG trace monitoring in conscious rats. The method which detects electroencephalographic activity in conscious rats follows that described by Dürmüller et al., (2000) Vigilance-Controlled Quantified EEG in Safety Pharmacology, Current Protocols in Pharmacology Unit 10.6. The study was conducted at Porsolt & Partners Pharmacology, Research Laboratory, Z. A. des Suhards—B.P. 9, 53940 Le Genest-Saint-Isle, France.
Substances: The formulation excipient used was physiological saline (Laboratoire Aguettant). […] All substances were stored in a dry, dark, controlled access area and maintained at a controlled ambient temperature of about 20±3° C. The vehicle solutions were stored at about +4° C. The substances were administered in a volume of 5 ml/kg body weight. The doses of bupropion hydrochloride are expressed in mg/kg of salt. […] The substances were dissolved in physiological saline and prepared freshly at each day of experimentation.
Test systems: The rats used were male Rj: Wistar (Han) rats, weighing from about 280 g to 324 g at the time of implantation. They were supplied by Elevage Janvier, 53940 Le Genest-Saint-Isle, France. […] Upon delivery to the laboratory, the animals were housed in groups of 5 animals maximum, in macrolon cages (44×28×19 cm) containing wood litter (Litalabo—SPPS, 95100 Argenteuil, France). The animals had free access to food (Code 113—SAFE, 89290 Augy, France) and tap water. The animal house was maintained under artificial lighting (12 hrs) from 7:00 to 19:00 in a controlled ambient temperature of about 21±3° C. and relative humidity maintained at from about 30% to about 80%. […] Except during the test sessions, the animals had free access to food (Code 113) and tap water. The animals were identified by marking the connector fixed on the animal's head with an indelible pen. Rats were sacrificed at the end of the experiments by lethal injection of pentobarbital (>100 mg/kg i.p.). Animals were not submitted to necropsy. There is no reason to expect that contaminants were present in the feed, water or bedding at levels capable of interfering with the results of the tests. No checks were performed for this particular study.
Electrode implantation procedure: Implantation surgery was carried out under aseptic conditions. Rats, anesthetized with sodium pentobarbital (60 mg/kg i.p., plus supplementary doses of from about 5 mg/kg to about 10 mg/kg to maintain anesthesia until surgery completion) were implanted with 2 surface EEG electrodes, comprised of miniature titanium screws, placed bilaterally over the frontal-parietal cortex and 2 depth electrodes, comprised of twisted platinium-iridium wires, placed stereotaxically into the hippocampus CA3 area (Paxinos and Watson coordinates interaural: AP+5.0 mm, L±2.5 mm, V+7.0 mm). An additional screw, placed over the right occipital cortex, served as ground electrode. The electrodes were connected to small plugs and the whole assembly was secured on the skull with dental acrylate.
Apparatus: For the EEG recording, the animals were placed in rectangular Plexiglas cubicles (30×10×25 cm) mounted on treadmills. Five recording units were run in parallel. A turning commutator was attached above the centre of each cubicle, about 30 cm above walking level. On one side, it was connected via an electrically shielded multicore cable to the animal and on the other side to the signal conditioning system (Coulbourn Model V75-01). The system filters were set for all channels to high pass 1 Hz and low pass 150 Hz, respectively. The amplification levels were kept at from 1000× to 10000×. The EEG signals were acquired and processed on a PC (DELL GX620-2800) installed with a 16 channel 200 kHz/12-bit AD acquisition card (NI PCI-6023E).

mice = experiment: Proconvulsant properties of bupropion salts: clonic convulsions in mice
Procedure: Number of convulsions and the intensity of the convulsions were recorded.
Mild: Head and tail slightly extended and little jerking; Moderate: Head and tail fully extended with some jerking; Severe: Head and tail fully extended with strong jerking. […] Step 2: To further investigate the patterns of convulsion occurrence using loglinear Poisson regression models. The number of convulsions was analyzed using the loglinear Poisson regression models with formulation, dose, and severity as predictors.

CD-1 mice = experiment: clonic convulsions in CD-1 mice after intraperitoneal dosing (range finding and main study); details: CD-1 mice
Procedure: Two studies were performed to investigate the relative proconvulsant properties of the two bupropion salts. In the first instance a range finding study was performed to establish the appropriate dose range for the main study. In each study the mice were divided into two dose groups and injected intraperitoneally with either bupropion HCl or bupropion HBr.
A clonic convulsion was defined as a stiffening of the animal followed by jerking movements. The convulsions were classified as mild, moderate and severe according to the following descriptions.
Mild: Head and tail slightly extended and little jerking
Moderate: Head and tail fully extended with some jerking
Severe: Head and tail fully extended with strong jerking
Post-treatment findings recorded included continuous observation for 120 minutes for evidence of clonic convulsions, and intermittent (fixed) observations for 24 hours for other signs, including tonic convulsions, movement, activity, paralysis, gait and evidence of recovery.

CC(NC(C)(C)C)C(=O)c1cccc(Cl)c1.Cl (racemic) [bupropion hydrochloride, (±)-1-(3-chlorophenyl)-2-[(1,1-dimethylethyl)amino]-1-propanone hydrochloride]
BEHAVIOR Facial clonus (Rj: Wistar (Han) rats; 10 mg/kg): − | BEHAVIOR Forelimb clonus (Rj: Wistar (Han) rats; 10 mg/kg): − | BEHAVIOR Head twitches (Rj: Wistar (Han) rats; 10 mg/kg): − | BEHAVIOR Hyperactivity Sterotypies (Rj: Wistar (Han) rats; 10 mg/kg): − | BEHAVIOR Rearing (Rj: Wistar (Han) rats; 10 mg/kg): − | BEHAVIOR Wholebody clonus (Rj: Wistar (Han) rats; 10 mg/kg): − | EEG ANALYSIS Burst cx (Rj: Wistar (Han) rats; 10 mg/kg): − | EEG ANALYSIS Burst hipp (Rj: Wistar (Han) rats; 10 mg/kg): − | EEG ANALYSIS Complex spike cx (Rj: Wistar (Han) rats; 10 mg/kg): − | EEG ANALYSIS Complex spike hipp (Rj: Wistar (Han) rats; 10 mg/kg): − | EEG ANALYSIS High amplitude fast frequency cx (Rj: Wistar (Han) rats; 10 mg/kg): − | EEG ANALYSIS High amplitude fast frequency hipp (Rj: Wistar (Han) rats; 10 mg/kg): − | EEG ANALYSIS High frequency burst activity hipp (Rj: Wistar (Han) rats; 10 mg/kg): − | EEG ANALYSIS Long seizure activity cx (Rj: Wistar (Han) rats; 10 mg/kg): − | EEG ANALYSIS Long seizure activity hipp (Rj: Wistar (Han) rats; 10 mg/kg): − | EEG ANALYSIS Post ictual activity cx (Rj: Wistar (Han) rats; 10 mg/kg): − | EEG ANALYSIS Post ictual activity hipp (Rj: Wistar (Han) rats; 10 mg/kg): − | EEG ANALYSIS Repetitive isolated spike cx (Rj: Wistar (Han) rats; 10 mg/kg): − | EEG ANALYSIS Repetitive isolated spike hipp (Rj: Wistar (Han) rats; 10 mg/kg): − | EEG ANALYSIS Sharp waves cx (Rj: Wistar (Han) rats; 10 mg/kg): − | EEG ANALYSIS Sharp waves hipp (Rj: Wistar (Han) rats; 10 mg/kg): − | EEG ANALYSIS Short seizure activity cx (Rj: Wistar (Han) rats; 10 mg/kg): − | EEG ANALYSIS Short seizure activity hipp (Rj: Wistar (Han) rats; 10 mg/kg): − | EEG ANALYSIS Spike-and-waves cx (Rj: Wistar (Han) rats; 10 mg/kg): − | EEG ANALYSIS Spike-and-waves hipp (Rj: Wistar (Han) rats; 10 mg/kg): − | BEHAVIOR Facial clonus (Rj: Wistar (Han) rats; 30 mg/kg): − | BEHAVIOR Forelimb clonus (Rj: Wistar (Han) rats; 30 mg/kg): − | BEHAVIOR Head twitches (Rj: Wistar (Han) rats; 30 mg/kg): − | BEHAVIOR Hyperactivity Sterotypies (Rj: Wistar (Han) rats; 30 mg/kg): + | BEHAVIOR Rearing (Rj: Wistar (Han) rats; 30 mg/kg): − | BEHAVIOR Wholebody clonus (Rj: Wistar (Han) rats; 30 mg/kg): − | EEG ANALYSIS Sharp waves cx (Rj: Wistar (Han) rats; 30 mg/kg): − | EEG ANALYSIS Sharp waves hipp (Rj: Wistar (Han) rats; 30 mg/kg): − | EEG ANALYSIS Spike-and-waves cx (Rj: Wistar (Han) rats; 30 mg/kg): − | EEG ANALYSIS Spike-and-waves hipp (Rj: Wistar (Han) rats; 30 mg/kg): − | BEHAVIOR Facial clonus (Rj: Wistar (Han) rats; 60 mg/kg): − | BEHAVIOR Forelimb clonus (Rj: Wistar (Han) rats; 60 mg/kg): − | BEHAVIOR Head twitches (Rj: Wistar (Han) rats; 60 mg/kg): − | BEHAVIOR Hyperactivity Sterotypies (Rj: Wistar (Han) rats; 60 mg/kg): + | BEHAVIOR Rearing (Rj: Wistar (Han) rats; 60 mg/kg): − | BEHAVIOR Wholebody clonus (Rj: Wistar (Han) rats; 60 mg/kg): − | EEG ANALYSIS Sharp waves cx (Rj: Wistar (Han) rats; 60 mg/kg): − | EEG ANALYSIS Sharp waves hipp (Rj: Wistar (Han) rats; 60 mg/kg): − | EEG ANALYSIS Spike-and-waves cx (Rj: Wistar (Han) rats; 60 mg/kg): − | EEG ANALYSIS Spike-and-waves hipp (Rj: Wistar (Han) rats; 60 mg/kg): − | BEHAVIOR Facial clonus (Rj: Wistar (Han) rats; 100 mg/kg): + | EEG ANALYSIS Spike-and-waves cx (Rj: Wistar (Han) rats; 100 mg/kg): − | EEG ANALYSIS Spike-and-waves hipp (Rj: Wistar (Han) rats; 100 mg/kg): − | Mean Number of Convulsions/Mouse, cumulative (mice; 100 mg/kg, All): 0.23 | odds of number of convulsions vs the bupropion hydrobromide group (mice; loglinear Poisson regression, adjusted for dose and severity): 1.41 | severity of seizure activity in the initial behavioral study (CD-1 mice): more severe
